How the values were obtained:
[1] = biological target: T1, TARP γ8 dependent GluA1 flop receptors (Homo sapiens, UniProt P42261+Q8WXS5); assay: FLIPR antagonist functional assay, GluA1 flop co-expressed with TARP γ-8 in CHO-S cells; assay type: cell-based; conditions: glutamate 45 μM plus CTZ 20 μM, average±SEM, n=9
T1 construct: expressed in transfected cells; host or cells: CHO-S (Invitrogen), transient transfection
Description: (§1) FLIPR Antagonist Functional Assay
(§2) Briefly, CHO-S (Invitrogen) cells are grown in suspension in 50/50 custom media to a density of 1×10^7 cells/ml. […]

[2] = tested on: formalin induced pain; assay: Manual formalin induced pain model; assay type: in vivo, mice; conditions: for % reduction in total time licking: mice
Description: Manual Formalin Induced Pain Model
The manual formalin induced pain model is well known for screening compounds for analgesic properties (Mogil J. S. et al., Heritability of nociception I: Responses of 11 inbred mouse strains on 12 measures of nociception. Pain 80 (1999) 67-82). The assay is performed in Plexiglas® boxes approx. 10 cm×10 cm×10 cm in size. A minor placed at the back of the cage allows the unhindered observation of the formalin injected paw. Non-fasted male mice (Harlan (HSD) CD1-Icr) are placed individually in the cubicles at least 60 min. prior to the experiment. All testing is conducted between 08:00 and 16:00 hr. and the testing room temperature is maintained at 21-23° C. Multiple doses of test compound (3, 10 and 30 mg/kg), vehicle (5% DMSO in 10% Acacia, 0.05% antifoam), and a positive control (tramadol 80 mg/kg in 1% HEC, 0.25% Tween 80, 0.05% antifoam) are peripherally administered (p.o.) at varying times before the formalin challenge. Formalin (20 μL of a 5% solution in 0.9% saline) is injected subcutaneously into the plantar surface of the left hind paw with a 27 gauge needle. Observation starts immediately after the formalin injection. Formalin induced pain is quantified by recording the number of seconds each licking event lasts in 5 min. intervals. The pain scoring is measured for 60 min. after the formalin injection. Two phases of pain behavior are observed as previously described (Wheeler-Aceto, H., Porreca, F. and Cowan, A., The rat paw formalin test: comparison of noxious agents, Pain 40 (1990) 229-238.). The early phase starts immediately after the formalin injection and lasts approximately 5 min., followed by the late phase that starts between minutes 10-15 with a maximum response typically observed around 25-40 min after the formalin injection. After the 60 min observation period, animals are sacrificed with CO2 followed by cervical dislocation. Of the different scoring parameters reported for the formalin test, the total time spent licking and biting the injected paw is considered to be most relevant. (Abbott et al., The formalin test: scoring properties of the first and second phases of the pain response in rats, Pain 60 (1995) 91-102; Coderre et al., The formalin test: a validation of the weighted-scores method of the behavioral pain rating, Pain 54 (1993) 43-50).) The early phase score is the sum of time spent licking (seconds) from time 0 to 5 min. The late phase score is obtained by adding the total number of seconds spent licking from minute 15 to min. 55 of the observation period. Data are presented as means with standard errors of means (±SEM). Data are evaluated by one-way analysis of variance (ANOVA) and the appropriate contrasts analyzed by Dunnett “t” test for two sided comparisons. […]

[3] = biological target: T2, AMPA GluA1 flip isoform devoid of TARP (Homo sapiens, UniProt P42261); assay: FLIPR antagonist functional assay, GluA1 flip expressed in CHO-S cells without TARP; assay type: cell-based; conditions: no TARP, did not inhibit, assay limit 9260 nM
T2 construct: expressed in transfected cells; host or cells: CHO-S (Invitrogen), transient transfection
T2 sequence (P42261 19-906 isoform P42261-2 limits assumed): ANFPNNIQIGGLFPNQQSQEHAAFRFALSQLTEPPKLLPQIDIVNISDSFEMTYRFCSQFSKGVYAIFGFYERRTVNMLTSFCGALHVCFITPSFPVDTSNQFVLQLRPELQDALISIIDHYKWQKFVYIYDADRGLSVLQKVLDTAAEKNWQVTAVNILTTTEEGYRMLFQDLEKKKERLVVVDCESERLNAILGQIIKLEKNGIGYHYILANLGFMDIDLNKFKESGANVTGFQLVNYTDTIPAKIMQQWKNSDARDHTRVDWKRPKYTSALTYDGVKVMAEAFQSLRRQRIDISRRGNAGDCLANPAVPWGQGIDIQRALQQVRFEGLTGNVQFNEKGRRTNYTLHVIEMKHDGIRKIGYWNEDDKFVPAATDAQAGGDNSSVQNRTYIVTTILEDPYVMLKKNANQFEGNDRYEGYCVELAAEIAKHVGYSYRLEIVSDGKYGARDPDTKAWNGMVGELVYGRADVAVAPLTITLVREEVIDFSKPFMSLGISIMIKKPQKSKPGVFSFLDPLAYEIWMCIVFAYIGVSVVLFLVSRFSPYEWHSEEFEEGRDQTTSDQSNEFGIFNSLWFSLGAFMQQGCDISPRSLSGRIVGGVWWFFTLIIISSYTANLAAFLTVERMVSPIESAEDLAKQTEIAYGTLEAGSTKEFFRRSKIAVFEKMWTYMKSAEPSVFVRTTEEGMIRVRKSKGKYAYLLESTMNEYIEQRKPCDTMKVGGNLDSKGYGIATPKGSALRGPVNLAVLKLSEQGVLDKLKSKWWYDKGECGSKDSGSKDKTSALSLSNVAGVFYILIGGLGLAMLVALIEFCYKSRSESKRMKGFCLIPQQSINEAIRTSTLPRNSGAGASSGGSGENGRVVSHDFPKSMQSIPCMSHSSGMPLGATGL
Description: as §1, §2

[4] = tested on: motor impairment; assay: Inverted screen test for motor impairment (within rat PTZ model); assay type: in vivo; conditions: rats, 1-10 mg/Kg p.o., 25 min after dosing
Description: Animals are removed and dosed with test compound or vehicle (5% DMSO, 10% acacia and 0.05% Dow Corning® 1510-US antifoam), p.o., 10 mL/Kg, and returned to their home cage. Twenty five min. after dosing, animals are placed onto a screen and the screen is inverted 180 degrees to test for motor impairment. The animals are scored 60 sec. after inversion as follows: 0 if the animal climbs over the screen; 1 if the animal is hanging onto the bottom of the screen; 2 if the animal has fallen off the screen. After completing the screen test, animals are dosed S.C. with 35 mg/kg PTZ in saline in a volume of 1 ml/kg. The animals are then placed in an observation cage and observed for 30 min. post PTZ. […] Tonic seizure is defined as loss of righting with tonic hindlimb extension. Lethality during the observation period is also recorded. Animals are scored according to the presence of a specific seizure type at any time during the observation period.

[5] = tested on: PTZ induced seizures; assay: Rat pentylenetetrazole (PTZ)-induced seizure model; assay type: in vivo
Text: Rat Pentylenetetrazole (PTZ)-Induced Seizure Model:
Male Sprague Dawley rats (from Harlan Sprague Dawley. Indianapolis, Ind.), weighing 90-110 grams at time of test, are housed 5 per cage with ad libitum food and water in a large colony room with a standard light cycle (lights on 6 am, lights off 6 pm). Animals are maintained in the colony room for at least 3 days before testing Animals are moved to a quiet room 1 hr. prior to the start of the test. Animals are used only once.
Animals are removed and dosed with test compound or vehicle (5% DMSO, 10% acacia and 0.05% Dow Corning® 1510-US antifoam), p.o., 10 mL/Kg, and returned to their home cage. Twenty five min. after dosing, animals are placed onto a screen and the screen is inverted 180 degrees to test for motor impairment. The animals are scored 60 sec. after inversion as follows: 0 if the animal climbs over the screen; 1 if the animal is hanging onto the bottom of the screen; 2 if the animal has fallen off the screen. After completing the screen test, animals are dosed S.C. with 35 mg/kg PTZ in saline in a volume of 1 ml/kg. The animals are then placed in an observation cage and observed for 30 min. post PTZ. […] Lethality during the observation period is also recorded. Animals are scored according to the presence of a specific seizure type at any time during the observation period.

[6] = biological target: T3, TARP γ2 dependent GluA1 flop receptors (Homo sapiens, UniProt P42261+Q9Y698); assay: FLIPR antagonist functional assay, GluA1 flop co-expressed with TARP γ-2 in CHO-S cells; assay type: cell-based; conditions: did not inhibit, assay limit 9260 nM
T3 construct: expressed in transfected cells; host or cells: CHO-S (Invitrogen), transient transfection
T3 sequence (P42261 19-906): as the sequence (P42261 19-906 isoform P42261-2 limits assumed) above, with G740N, S750N, V754L, S760N, K772G, D773G, S774G, G775D counted along it
T3 sequence (Q9Y698 whole entry): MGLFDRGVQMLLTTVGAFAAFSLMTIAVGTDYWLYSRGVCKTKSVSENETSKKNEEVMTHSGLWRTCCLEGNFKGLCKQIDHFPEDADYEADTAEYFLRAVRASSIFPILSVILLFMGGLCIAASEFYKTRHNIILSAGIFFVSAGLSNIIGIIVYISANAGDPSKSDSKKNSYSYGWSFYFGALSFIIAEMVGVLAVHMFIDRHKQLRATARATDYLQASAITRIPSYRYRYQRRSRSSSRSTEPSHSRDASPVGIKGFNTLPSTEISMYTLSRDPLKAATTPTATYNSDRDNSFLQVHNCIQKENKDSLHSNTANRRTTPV
Description: as §1, §2

T1 sequence (P42261 19-906): as the sequence (P42261 19-906 isoform P42261-2 limits assumed) above, with G740N, S750N, V754L, S760N, K772G, D773G, S774G, G775D counted along it
T1 sequence (Q8WXS5 whole entry): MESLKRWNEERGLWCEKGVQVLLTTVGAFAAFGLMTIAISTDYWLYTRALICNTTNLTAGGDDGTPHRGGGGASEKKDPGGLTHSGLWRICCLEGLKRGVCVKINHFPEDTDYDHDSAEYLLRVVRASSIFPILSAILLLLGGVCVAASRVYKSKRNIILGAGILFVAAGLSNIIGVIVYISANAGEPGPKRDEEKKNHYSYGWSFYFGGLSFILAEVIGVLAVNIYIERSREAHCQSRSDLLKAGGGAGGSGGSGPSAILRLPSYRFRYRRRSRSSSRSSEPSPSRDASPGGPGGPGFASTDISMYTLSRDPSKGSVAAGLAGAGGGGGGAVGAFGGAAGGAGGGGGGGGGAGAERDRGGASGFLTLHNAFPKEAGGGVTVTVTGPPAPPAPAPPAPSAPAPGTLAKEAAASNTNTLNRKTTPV

## C[C@@H](c1ccc2[nH]c(=O)sc2c1)c1ccn(-c2ccc(OCCO)cn2)n1 (single isomer, unassigned) [Example 2]
[1]
  IC50: 0.0745 ± 0.0178 µM
  inhibition of glutamate plus CTZ activation: about 85.6±0.7%
[2]; Mus musculus, po, male CD1 mice, p.o., derived from dose responses at 3, 10, 30 mg/kg, read-out: ED50, reduction of pain behavior
  ED50: 2.61 mg/kg
[2]; 3 mg/kg p.o.
  % reduction in total time licking: 53.9%
[2]; 10 mg/kg p.o.
  % reduction in total time licking: 80.4%
[2]; 30 mg/kg p.o.
  % reduction in total time licking: 90.0%
[3]
  IC50: > 9.26 µM
[4]
  motor impairment as measured by the inverted screen test: without any observed motor impairment
[5]; Rattus norvegicus, male Sprague Dawley rats, p.o., dose range 1-10 mg/Kg, PTZ 35 mg/kg S.C., read-out: estimated ED50, protection against PTZ induced seizures
  ED50: 1.74 mg/kg
[5]; rats, 10 mg/Kg p.o.
  protection against PTZ induced seizures: 100%
[6]
  IC50: > 9.26 µM
